Laboratory results reported in paper PMC12470154, “In Vitro Evaluation of Antimicrobial Amyloidogenic Peptides for the Treatment of Early and Mature Bacterial Biofilms” (International Journal of Molecular Sciences, 2025).

Key:
[1] = system: MRSA (SA 180-F strain); test: Antibacterial activity in liquid medium (optical density); type: cell-based, methicillin-resistant Staphylococcus aureus; set-up: key to change of optical density vs negative control: ↓: Decrease in the parameter (optical density) compared to the negative control; −: No decrease in the parameter; ↑: Reverse effect (increase in the optical density compared to the control); details: 24 h, 37 °C; for change of optical density vs negative control: OD 595 nm
Procedure: (§1) To evaluate the antibacterial activity of peptides in liquid culture, a stationary-phase culture of the tested bacterial strain was diluted 100-fold in fresh medium containing peptides or gentamicin (positive control) at the specified concentrations. A total volume of 200 µL was added to each well of a 96-well round-bottom microtiter plate. After 24 h of incubation at 37 °C, the samples were transferred to a flat-bottom 96-well microtiter plate, and the optical density was measured at 595 nm. Separately, the optical density of medium containing peptides but no bacteria was measured. These values were used as baseline (zero) readings for subsequent data analysis.

[2] = system: E. coli (MG1655 strain); test: as above; type: cell-based, Escherichia coli; set-up: key to change of optical density vs negative control: ↓: Decrease in the parameter (optical density) compared to the negative control; −: No decrease in the parameter; ↑: Reverse effect (increase in the optical density compared to the control); details: 24 h, 37 °C; for change of optical density vs negative control: OD 595 nm
Procedure: as §1

[3] = system: P. aeruginosa (2943 strain); test: as above; type: cell-based, Pseudomonas aeruginosa; set-up: key to change of optical density vs negative control: ↓: Decrease in the parameter (optical density) compared to the negative control; −: No decrease in the parameter; ↑: Reverse effect (increase in the optical density compared to the control); details: 24 h, 37 °C; for change of optical density vs negative control: OD 595 nm
Procedure: as §1

[4] = system: E. coli (MG1655 strain); test: Antibacterial activity on 0.7% agar (inhibition zone); type: cell-based, Escherichia coli; set-up: key: +: The presence of a bacterial growth inhibition zone; −: The absence of a bacterial growth inhibition zone; details: drop on 0.7% agar, 24 h
Procedure: Drops of the samples were applied to the surface of solidified 0.7% agar at the concentrations indicated in Table 2 and Supplementary S2 (Figures S1–S4). After 24 h of incubation, the results were evaluated based on the presence or absence (+/−) of inhibition zones.
Once the agar solidified, drops of peptide samples at the concentrations 1, 0.1, 0.01, and 0.001 mg/mL were applied to the agar surface.

[5] = system: MRSA (SA 180-F strain); test: Early biofilm formation, MTT assay; type: cell-based, methicillin-resistant Staphylococcus aureus; set-up: key: ↓: Decrease in the parameter (optical density) compared to the negative control; −: No decrease in the parameter; ↑: Reverse effect (increase in the optical density compared to the control); details: 24 h, 0.3% MTT 2 h 37 °C, OD 595 nm
Procedure: (§2) After 24 h of incubation, the medium was removed. To assess the total biofilm biomass, the wells were rinsed with sterile PBS solution and stained with 0.1% crystal violet. The dye bound to the surface was then removed using 95% ethanol. To assess the presence of metabolically active cells, 0.3% MTT (PanEco Ltd., Moscow, Russia) solution was added to each well, and the plates were incubated at 37 °C for 2 h. After incubation, the MTT solution was removed, 150 µL of DMSO (Chimmed, Moscow, Russia) and 25 µL of glycine buffer were added to each well, and the plates were left at room temperature for 15 min. The resulting solutions were transferred to a flat-bottom 96-well plate, and optical density was measured at 595 nm.

[6] = system: P. aeruginosa (2943 strain); test: Mature biofilms, MTT assay; type: cell-based, Pseudomonas aeruginosa; details: mature biofilm
Procedure: as §2
(§3) A stationary-phase culture of the tested strain was diluted 100-fold in fresh medium (200 µL per well) and added to the wells of a 96-well round-bottom plate. […] After another 24 h, the medium was removed and the wells were rinsed with sterile PBS to eliminate planktonic cells. The procedures for assessing total biofilm biomass and cell metabolic activity using crystal violet and MTT assays were performed in the same manner as described above for early-stage biofilm experiments.

[7] = system: E. coli (MG1655 strain); test: Early biofilm formation, MTT assay; type: cell-based, Escherichia coli; set-up: key: ↓: Decrease in the parameter (optical density) compared to the negative control; −: No decrease in the parameter; ↑: Reverse effect (increase in the optical density compared to the control); details: 24 h, 0.3% MTT 2 h 37 °C, OD 595 nm
Procedure: as §2

[8] = system: E. coli (MG1655 strain); test: Mature biofilms, MTT assay; type: cell-based, Escherichia coli; set-up: key: ↓: Decrease in the parameter (optical density) compared to the negative control; −: No decrease in the parameter; ↑: Reverse effect (increase in the optical density compared to the control); details: mature biofilm: peptide added after 24 h, further 24 h, 0.01-10 mg/mL
Procedure: as §2, §3

[9] = system: MRSA (SA 180-F strain); test: Early biofilm formation, crystal violet staining; type: cell-based, methicillin-resistant Staphylococcus aureus; set-up: key: ↓: Decrease in the parameter (optical density) compared to the negative control; −: No decrease in the parameter; ↑: Reverse effect (increase in the optical density compared to the control); details: peptide present from inoculation, 24 h, OD 595 nm
Procedure: as §2

[10] = system: P. aeruginosa (2943 strain); test: Early biofilm formation, MTT assay; type: cell-based, Pseudomonas aeruginosa; set-up: key: ↓: Decrease in the parameter (optical density) compared to the negative control; −: No decrease in the parameter; ↑: Reverse effect (increase in the optical density compared to the control); details: 24 h, 0.3% MTT 2 h 37 °C, OD 595 nm
Procedure: as §2

[11] = system: P. aeruginosa (2943 strain); test: Mature biofilms, crystal violet staining; type: cell-based, Pseudomonas aeruginosa; set-up: key: ↓: Decrease in the parameter (optical density) compared to the negative control; −: No decrease in the parameter; ↑: Reverse effect (increase in the optical density compared to the control); details: mature biofilm: peptide added after 24 h, further 24 h; 0.01-10 mg/mL
Procedure: as §2, §3

Sequence | concentration given with ↓ (decrease in optical density) [1] [mg/mL] | change of optical density vs negative control [1] | change of optical density vs negative control [2] | concentration given with ↓ (decrease in optical density) [3] [mg/mL] | change of optical density vs negative control [3] | bacterial growth inhibition zone ([4]; 0.001 mg/mL) | bacterial growth inhibition zone ([4]; 0.01 mg/mL) | bacterial growth inhibition zone ([4]; 0.1 mg/mL) | bacterial growth inhibition zone ([4]; 1 mg/mL) | change of optical density after MTT assay vs negative control [5] | residual viability of cells (MTT) [6] | change of optical density after MTT assay vs negative control [7] | change of optical density after MTT assay vs negative control [8] | concentration given with ↓ (decrease in optical density) [2] [mg/mL] | change of optical density after crystal violet staining vs negative control [9] | change of optical density after crystal violet staining vs negative control [11] | also measured
RKKRRQRRRGGGGVTDFGVFVEI [R23I^T, TAT cell-penetrating peptide linked via glycine linker to amyloidogenic fragment of S1 ribosomal protein of T. thermophilus] | 1 | ↓ (1 mg/mL) | ↑ | 10 | ↓ (10 mg/mL) | − | − | − | − | ↑ | did not inhibit | ↑ | ↑ |  |  |  | 
RKKRRQRRRGGGGVVVHINGGKFGGGGSRQIKIWFQNRRMKWKK [R44K^S] | 0.1 | ↓ (0.1 mg/mL) | ↓ (0.1 mg/mL) | 10 | ↓ (10 mg/mL) | − | − | − | − | ↑ | did not inhibit |  | ↑ | 0.1 | ↓ (1 mg/mL) | ↑ | change of optical density after crystal violet staining vs negative control ([9]; listed as R44K^P): ↓ (10 mg/mL); change of optical density after MTT assay vs negative control ([7]; listed as R44K^P): ↑; change of optical density after MTT assay vs negative control ([10]; listed as R44K^P): ↓ (10 mg/mL)
VTDFGVFVEIGGGGSRQIKIWFQNRRMKWKK [V31K^T, amyloidogenic fragment of S1 of T. thermophilus linked via glycine-rich linker to antennapedia peptide] | 1 | ↓ (1 mg/mL) | − | 10 | − | − | − | − | − | ↑ | did not inhibit |  |  | 0.1 | ↑ | ↑ | change of optical density vs negative control ([1]; listed as V31K^S): ↓ (0.1 mg/mL); concentration given with ↓ (decrease in optical density) ([1]; listed as V31K^S): 0.1 mg/mL; change of optical density vs negative control ([2]; listed as V31K^S): ↓ (0.1 mg/mL); change of optical density vs negative control ([3]; listed as V31K^S): ↓ (10 mg/mL); bacterial growth inhibition zone ([4]; 1 mg/mL, listed as V31K^S): +; change of optical density after crystal violet staining vs negative control ([9]; listed as V31K^S): ↓ (10 mg/mL); change of optical density after MTT assay vs negative control ([10]; listed as V31K^S): ↓ (10 mg/mL); change of optical density after MTT assay vs negative control ([8]; listed as V31K^S): ↑
RKKRRQRRRGGGGITDFGIFIGL [R23L^P] | 0.1 | ↓ (0.1 mg/mL) | ↓ (0.1 mg/mL) | 10 | ↓ (10 mg/mL) | − | − | − | + | ↑ | did not inhibit | ↑ |  | 0.1 | ↓ (10 mg/mL) | ↑ | change of optical density after MTT assay vs negative control [10]: ↑
ITDFGIFIGLGGGGSRQIKIWFQNRRMKWKK [I31K^P] | 1 | ↓ (1 mg/mL) | − |  | ↑ |  |  |  |  | ↑ |  | ↑ |  |  |  | ↑ | 
